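Following 48 hours of exposure in 96-well plates, responses at five concentrations were used to interpolate endpoints linearly. GI50: concentration for 50% inhibition of growth.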 The source made the active and inactive calls. No stated cut-off is given here; in the data, active = GI50 up to about 1.1 µM and inactive = higher.
Legend:
Assay in all cases: NCI tumour cell line growth inhibition, 48 h
KM12 = system: KM12
M14 = system: M14
786-0 = system: 786-0
LOX IMVI = system: LOX IMVI
A549 = system: A549
SNB-75 = system: SNB-75
OVCAR-3 = system: OVCAR-3
UACC-257 = system: UACC-257
SNB-19 = system: SNB-19
RXF 393 = system: RXF 393
SF-539 = system: SF-539
NCI/ADR-RES = system: NCI/ADR-RES
HL-60 = system: HL-60
Malme-3M = system: Malme-3M
OVCAR-4 = system: OVCAR-4
NCI-H522 = system: NCI-H522
SR = system: SR
SF-295 = system: SF-295
HOP-92 = system: HOP-92

Measured: GI50

O=C(O)CCC(=O)c1ccc2sc3ccccc3c2c1
inactive: KM12 > 100 µM | M14 > 100 µM | 786-0 > 100 µM | LOX IMVI > 100 µM | A549 > 100 µM | SNB-75 > 100 µM | OVCAR-3 > 100 µM | UACC-257 > 100 µM | SNB-19 > 100 µM | RXF 393 > 100 µM | SF-539 > 100 µM | NCI/ADR-RES > 100 µM | HL-60 15.8 µM | Malme-3M > 100 µM | OVCAR-4 > 100 µM | NCI-H522 > 100 µM | SR > 100 µM | SF-295 > 100 µM

CN(C)S(=O)(=O)c1nc(Cl)c2nc[nH]c2n1
inactive: KM12 > 100 µM | M14 > 100 µM | 786-0 > 100 µM | LOX IMVI > 100 µM | A549 > 100 µM | SNB-75 36.9 µM | OVCAR-3 > 100 µM | UACC-257 > 100 µM | SNB-19 > 100 µM | RXF 393 55.7 µM | NCI/ADR-RES > 100 µM | HL-60 98.6 µM | Malme-3M > 100 µM | OVCAR-4 > 100 µM | NCI-H522 > 100 µM | SR > 100 µM | SF-295 > 100 µM

COC(=O)c1csc(-c2nc(CCNC(=O)OC(C)(C)C)sc2Br)n1
inactive: KM12 > 100 µM | M14 > 100 µM | 786-0 > 100 µM | A549 > 100 µM | SNB-75 > 100 µM | OVCAR-3 > 100 µM | UACC-257 > 100 µM | SNB-19 > 100 µM | RXF 393 > 100 µM | SF-539 > 100 µM | NCI/ADR-RES > 100 µM | HL-60 > 100 µM | Malme-3M > 100 µM | SR 81.8 µM | SF-295 > 100 µM

CC1(C)Oc2ccc(Cl)cc2C12CC2
inactive: KM12 17.7 µM | M14 18.8 µM | 786-0 16.7 µM | LOX IMVI 16.6 µM | A549 18.9 µM | SNB-75 16.8 µM | OVCAR-3 13.8 µM | UACC-257 15.1 µM | SNB-19 16.5 µM | RXF 393 15.6 µM | SF-539 31.5 µM | NCI/ADR-RES 18.4 µM | HL-60 18.5 µM | Malme-3M 23.4 µM | OVCAR-4 13.8 µM | SR 18.1 µM | SF-295 14 µM

O=c1[nH]c2cccc([N+](=O)[O-])c2c(=O)n1-c1ccc(Cl)cc1
inactive: KM12 15.2 µM | M14 10.7 µM | 786-0 19.8 µM | LOX IMVI 16.1 µM | A549 12.4 µM | OVCAR-3 10.8 µM | UACC-257 11.5 µM | SNB-19 20 µM | RXF 393 17.1 µM | SF-539 12.3 µM | NCI/ADR-RES 10.4 µM | HL-60 11.7 µM | Malme-3M 12.8 µM | OVCAR-4 5.07 µM | HOP-92 18.5 µM | SR 15 µM | SF-295 1.89 µM

CCCCn1cc(C(=O)O)c(=O)c2c3sccc3ccc21
inactive: KM12 > 100 µM | M14 > 100 µM | 786-0 > 100 µM | LOX IMVI > 100 µM | A549 > 100 µM | SNB-75 25.8 µM | OVCAR-3 > 100 µM | UACC-257 > 100 µM | SNB-19 > 100 µM | RXF 393 > 100 µM | SF-539 > 100 µM | NCI/ADR-RES 19.9 µM | HL-60 34.8 µM | Malme-3M > 100 µM | OVCAR-4 > 100 µM | HOP-92 > 100 µM | NCI-H522 > 100 µM | SF-295 74.8 µM

C(=C/CCCN1O[C@@H](CCCCCCCCc2cccnc2)[C@H]2CCC[C@H]21)/CCCCCCCCCc1cccnc1
inactive: KM12 18.5 µM | M14 24 µM | 786-0 18.7 µM | LOX IMVI 12.7 µM | A549 14.1 µM | SNB-75 27.1 µM | OVCAR-3 17.1 µM | UACC-257 14.6 µM | SNB-19 25.6 µM | RXF 393 17.1 µM | SF-539 18.1 µM | NCI/ADR-RES 28.1 µM | HL-60 5.22 µM | Malme-3M 15.4 µM | OVCAR-4 32.4 µM | HOP-92 13.2 µM | SR 17.2 µM | SF-295 20 µM

COC(=O)[C@]12CSC[C@H]1C[C@H](c1ccc(N(C)C)cc1)N2
inactive: KM12 > 100 µM | M14 > 100 µM | 786-0 > 100 µM | LOX IMVI > 100 µM | A549 > 100 µM | SNB-75 > 100 µM | OVCAR-3 > 100 µM | UACC-257 > 100 µM | SNB-19 > 100 µM | RXF 393 > 100 µM | SF-539 > 100 µM | NCI/ADR-RES > 100 µM | Malme-3M > 100 µM | OVCAR-4 > 100 µM | HOP-92 > 100 µM | SR > 100 µM | SF-295 > 100 µM

c1cc2sc1CSCCSCCSC2
inactive: KM12 > 100 µM | M14 > 100 µM | 786-0 > 100 µM | LOX IMVI > 100 µM | A549 > 100 µM | SNB-75 > 100 µM | OVCAR-3 > 100 µM | UACC-257 > 100 µM | SNB-19 > 100 µM | SF-539 > 100 µM | NCI/ADR-RES > 100 µM | HL-60 > 100 µM | OVCAR-4 > 100 µM | HOP-92 > 100 µM | NCI-H522 > 100 µM | SR > 100 µM | SF-295 > 100 µM

CC1(c2cccs2)CC(c2cccs2)=C(C#N)C(=C(C#N)C#N)N1 (stereo not drawn)
inactive: KM12 17.1 µM | M14 20.4 µM | 786-0 17.3 µM | LOX IMVI 16.1 µM | A549 22 µM | SNB-75 18.8 µM | OVCAR-3 16.3 µM | UACC-257 17.6 µM | SNB-19 18.7 µM | RXF 393 18.3 µM | SF-539 25.2 µM | NCI/ADR-RES 21.3 µM | HL-60 10.1 µM | Malme-3M 19.2 µM | OVCAR-4 16.4 µM | HOP-92 14.8 µM | SR 18 µM | SF-295 16.9 µM

COc1cccc(C(C#N)NNC(=O)c2c(Cl)c(Cl)c(Cl)c(Cl)c2-c2nc3cc(C(=O)c4ccccc4)ccc3[nH]2)c1O (stereo not drawn)
inactive: KM12 3.64 µM | M14 3.66 µM | 786-0 4.06 µM | LOX IMVI 5.19 µM | A549 4.06 µM | SNB-75 2 µM | OVCAR-3 2.2 µM | UACC-257 9.02 µM | SNB-19 4.63 µM | RXF 393 2.17 µM | SF-539 2.63 µM | NCI/ADR-RES 2.54 µM | HL-60 3.59 µM | OVCAR-4 3.09 µM | HOP-92 9.2 µM | SR 2.91 µM | SF-295 1.74 µM

C1=CC(=[N+]2N=C(c3ccccc3)CC2c2ccccc2)C=CC1=C1SC(c2ccccc2)(c2ccccc2)c2ccccc21.[O-][Cl+3]([O-])([O-])[O-] (stereo not drawn)
inactive: KM12 > 100 µM | M14 60.8 µM | 786-0 > 100 µM | A549 > 100 µM | OVCAR-3 > 100 µM | SNB-19 79.4 µM | RXF 393 > 100 µM | SF-539 > 100 µM | NCI/ADR-RES > 100 µM | HL-60 > 100 µM | Malme-3M > 100 µM | HOP-92 82 µM | SR > 100 µM | SF-295 61.8 µM

— ChEMBL document CHEMBL1201862, “PubChem BioAssay data set” (2004)
